“Also recorded” adds a separate entry of the source.
Tests used:
[1] = target: T1, Akt/PDK1 (Homo sapiens, UniProt P31749); assay: interaction of Akt with PDK1 in H1299 cells; format: cell-based
T1 construct: endogenous in cells; host or cells: H1299
Experimental: (§1) PIP3 directly binds to the PH domain and induces a conformational change in Akt, which enables PDK1 or mTORC2 to access and phosphorylate Akt at T308 or S473. To test whether Mcl-1, similar to PIP3, may also affect the interactions between Akt and PDK1 or mTORC2, co-IP experiments using Akt antibody were performed in H1299 parental cells or H1299 Mcl-1^−/^− cells expressing WT Mcl-1, DPEST Mcl-1 mutant, or empty vector, followed by Western blot using PDK1 or mTORC2 antibody, respectively. Results reveal that knockout of Mcl-1 disrupted Akt/PDK1 and Akt/mTORC2 interactions, and expression of WT Mcl-1, but not PEST deletion mutant, restored Akt/PDK1 and Akt/mTORC2 interactions.
(§2) To test whether PH-687-mediated Mcl-1/Akt dissociation enhances interaction between the PH and KD domains, a mammalian two-hybrid system was employed to measure the PH/KD interaction in H1299 cells using Gal4BD-Akt KD, VP16AD-Akt PH, and pG5SEAP in the absence or presence of PH-687.

[2] = system: human lung cancer cells; assay: sulforhodamine B cytotoxicity screening; format: cell-based; conditions: sulforhodamine B assay; among the top 500 small molecules from docking
Text: The small molecules were ranked according to their energy scores. The top 500 small molecules based on predicted binding energies were selected for screening of cytotoxicity in human lung cancer cells by sulforhodamine B assay as described in Park et al. Novel small molecule inhibitors of Bcl-XL to treat lung cancer. Cancer Res 2013;73: 5485-96.

[3] = system: Akt phosphorylation; assay: growth factor-induced Akt phosphorylation in H1299 cells; format: cell-based, human; conditions: 2 mmol/L, 1 hour, EGF 100 ng/mL, IGF 10 ng/mL or insulin 1 mg/mL
Experimental: To test whether Mcl-1 or PH-687 also affects Akt activation by growth factors such as EGF, IGF, or insulin, first, H1299 parental and H1299 Mcl-1^−/^− cells were treated with EGF (100 ng/mL), IGF (10 ng/mL), or insulin (1 mg/mL) for 1 hour, followed by analysis of Akt phosphorylation. […] Knockout of Mcl-1 blocked EGF, IGF, and insulin-induced Akt phosphorylation at S473 and T308. Second, H1299 cells were treated with EGF (100 ng/mL), IGF (10 ng/mL), or insulin (1 mg/mL) in the absence or presence of PH-687 (2 mmol/L) for 1 hour, followed by analysis of Akt phosphorylation. Results reveal that PH-687 inhibited EGF, IGF, and insulin-induced Akt phosphorylation at S473 and T308.

[4] = target: T2, GST-PH domain-only Akt protein (Homo sapiens, UniProt P31749); assay: thermal shift assay, PH domain-only protein; format: binding; conditions: purified GST-PH-mutant (PH domain-only) protein, increasing concentrations
T2 construct: PH domain-only proteins were generated; made in house
Experimental: (§3) To test whether PH-687 specifically binds to the PH domain in Akt, recombinant GST-tagged WT Akt, PH deletion Akt mutant (DPH), and PH domain-only proteins were generated and PH-687 compound/Akt protein binding were measured using a thermal shift assay. Thermal shift assay is a technique to study protein/small-molecule interactions that enhance protein thermal stability and increase melting temperatures as described in Jin et al. Glutamate dehydrogenase 1 signals through antioxidant glutathione peroxidase 1 to regulate redox homeostasis and tumor growth. Cancer Cell, 2015, 27:257-70. […] Because PH-687 can bind to the Mcl-1-binding site (i.e., PH domain) on Akt protein, the effect of PH-687 on Mcl-1/Akt interaction was tested.

[5] = system: H1299 cells expressing Akt siRNA; assay: colony formation assay, H1299 cells expressing Akt siRNA; format: cell-based, human; conditions: knockdown of Akt by Akt siRNA, vs H1299 parental; 0, 0.1, 0.5, 1 mmol/L
Experimental: (§4) To further test whether PH-687 specifically functions through targeting Mcl-1/AKT signaling in lung cancer cells, H1299 parental cells, H1299 Mcl-1^−/^− cells and H1299 cells expressing Akt siRNA were treated with increasing concentrations of PH-687 (0, 0.1, 0.5, 1 mmol/L), followed by colony formation assay.

[6] = target: T3, Akt/mTORC2 (Homo sapiens, UniProt P31749); assay: interaction of Akt with mTORC2 in H1299 cells; format: cell-based
T3 construct: endogenous in cells; host or cells: H1299
Experimental: as §1, §2

[7] = system: Akt PH/KD interaction; assay: mammalian two-hybrid system (SEAP), PH/KD interaction in H1299 cells; format: cell-based, human; conditions: H1299 cells, 0, 0.5, 1, 2 mmol/L, 24 hours
Text: Because Mcl-1 can directly interact with Akt at the PH domain, experiments were designed to test whether Mcl-1 affects the intramolecular PH domain/KD interaction. GST-tagged KD, GFP-tagged PH domain, and Flag-tagged WT Mcl-1 or DPEST Mcl-1 mutant were used for co-transfection and co-IP experiments. […] To further confirm these findings, a mammalian two-hybrid system was employed to measure the PH/KD interaction. Co-transfection of Gal4BD-Akt KD and VP16AD-Akt PH along with pG5SEAP in cells drives the expression of secreted alkaline phosphatase (SEAP) when KD/PH interaction occurs. To test the effect of Mcl-1 on KD/PH interaction, the two-hybrid H1299 Mcl-1^−/^− cells were co-transfected with WT Mcl-1 or DPEST mutant Mcl-1, followed by analysis of SEAP activity. […] Because the PEST domain is required for Mcl-1/Akt binding, it is proposed that Mcl-1 disruption of intramolecular PH domain/kinase domain interactions may occur through Mcl-1/Akt binding.
as §2

[8] = target: T4, Mcl-1/Akt complexes (Homo sapiens, UniProt P31749); assay: Co-IP of Mcl-1/Akt interaction in H1299 cells; format: cell-based; conditions: increasing concentrations
T4 construct: treatment of H1299 cells with increasing concentrations of PH-687; endogenous in cells; host or cells: H1299
Experimental: To evaluate the mechanism by which Mcl-1 regulates Akt, coimmunoprecipitation (co-IP) experiments using Mcl-1 or Akt antibody were performed in H1299 parental versus H1299 Mcl-1^−/^− cells. […] Because Akt antibody could pull-down Mcl-1 protein only in H1299 parental, but not in H1299 Mcl-1^−/^− cells, this indicates a potential direct interaction between Mcl-1 and Akt in human lung cancer cells. To further verify this interaction, similar co-IP experiments were carried out in a cell-free system using purified recombinant Mcl-1 and Akt proteins. Consistently, Mcl-1 also directly interacted with Akt in the cell-free system. To detect the intracellular localization(s) of Akt/Mcl-1 interaction, a Duolink™ proximity ligation assay (PLA) system was employed to detect Akt/Mcl-1 interaction in H1299 cells and H460 cells according to the manufacturer's instructions. Two primary antibodies raised in different species (i.e., Mcl-1 antibody from rabbit and Akt antibody from mouse) are used to detect two unique protein targets. […] PLA signals were detected by fluorescence microscopy as discrete spots. […]
To test whether PH-687 specifically binds to the PH domain in Akt, recombinant GST-tagged WT Akt, PH deletion Akt mutant (DPH), and PH domain-only proteins were generated and PH-687 compound/Akt protein binding were measured using a thermal shift assay. […]

[9] = system: GST-DPH (PH deletion Akt mutant); assay: thermal shift assay, PH deletion Akt mutant; format: binding; conditions: GST-DPH protein, increasing concentrations
Experimental: as §3

[10] = system: H1299 parental cells; assay: colony formation assay, H1299 parental cells; format: cell-based, human; conditions: H1299 cells, 0, 0.1, 0.5, 1 mmol/L
Experimental: as §4

[11] = target: T5, GST-tagged WT Akt (Homo sapiens, UniProt P31749); assay: thermal shift assay, GST-WT Akt; format: binding; conditions: purified GST-WT Akt, increasing concentrations
T5 construct: made in house
Experimental: as §3

[12] = system: NSCLC (H1299) xenografts; assay: H1299 lung cancer xenografts in nude mice; format: in vivo
Experimental: Nu/Nu nude mice with H1299 lung cancer xenografts were treated with increasing doses of PH-687 for 4 weeks. Tumor volume was measured once every 4 days. After 28 days, mice were sacrificed and the tumors were removed, photographed, and analyzed.
(§5) To test the antitumor potency of PH-687 in vivo, nude mice with NSCLC (i.e., H1299) xenografts were treated with increasing doses (0, 30, 60, and 90 mg/kg/day) of PH-687 for 4 weeks.
(§6) Six-week-old male nude mice were purchased from Harlan and housed under pathogen-free conditions. H1299 cells were subcutaneously implanted into mouse flanks. Tumor bearing mice were randomly grouped and tumors were allowed to grow to an average volume of 100 mm3 before treatment. Mice were treated with PH-687 through intraperitoneal injection (i.p) at the indicated dose. During treatment, tumor volumes were measured by caliper once every 4 days.
Paraffin-embedded human lung tissue samples from 208 patients with NSCLC were obtained. Tissue microarray was constructed with replicate cores of tumor and adjacent normal lung. After deparaffinization, rehydration, inactivation of endogenous peroxidase, and antigen retrieval, IHC staining was performed. The following primary antibody dilutions were used: anti-Mcl-1 (1:300), anti-pAKT S473 (1:100), anti-pAKT T308 (1:100), anti-Ki67 (1:500), and anti-active caspase-3 (1:100). Ki67-positive cells and active caspase-3-positive cells in tumor tissues were scored. Percentage of positive cells was determined from three separate fields in each of three independent tumor samples. The semiquantitative evaluation of IHC staining of Mcl-1 and pAkt was carried out using an immunoscore based on both the percentage of stained cells and staining intensity.

[13] = toxicity in xenograft-bearing mice (body weight, blood chemistry, blood counts); format: in vivo; conditions: 30-90 mg/kg/day
Experimental: as §5, §6

[14] = system: various human lung cancer cell lines (H1299, H157, H460); assay: colony formation / growth in various human lung cancer cell lines; format: cell-based
[15] = system: Akt; assay: Akt activity in human lung cancer cell lines; format: cell-based
[16] = system: H1299 Mcl-1−/− cells; assay: colony formation assay, H1299 Mcl-1−/− cells; format: cell-based, human; conditions: knockout of Mcl-1 by CRISPR/cas9, vs H1299 parental; 0, 0.1, 0.5, 1 mmol/L
Experimental: as §4

[17] = harvested tumor tissues after treatment

T2 sequence (P31749 5-108 limits assumed): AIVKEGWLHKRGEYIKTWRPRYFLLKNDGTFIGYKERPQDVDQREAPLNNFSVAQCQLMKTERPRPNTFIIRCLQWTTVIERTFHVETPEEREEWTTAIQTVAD
T5 sequence (P31749 whole entry): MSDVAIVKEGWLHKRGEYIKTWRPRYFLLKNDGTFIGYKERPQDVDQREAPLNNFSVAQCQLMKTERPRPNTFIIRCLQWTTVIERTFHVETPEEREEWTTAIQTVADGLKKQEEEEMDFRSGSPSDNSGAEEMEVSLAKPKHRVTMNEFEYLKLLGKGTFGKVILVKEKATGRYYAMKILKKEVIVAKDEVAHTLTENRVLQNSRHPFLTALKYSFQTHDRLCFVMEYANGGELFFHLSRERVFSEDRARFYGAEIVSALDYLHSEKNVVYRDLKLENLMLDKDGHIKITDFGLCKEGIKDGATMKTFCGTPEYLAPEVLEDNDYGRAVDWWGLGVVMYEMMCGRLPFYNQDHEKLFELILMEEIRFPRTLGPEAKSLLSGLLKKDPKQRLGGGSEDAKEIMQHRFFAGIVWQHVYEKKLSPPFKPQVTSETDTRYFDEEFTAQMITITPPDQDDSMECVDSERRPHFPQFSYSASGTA
T4 sequence (P31749 whole entry, one chain of several): as the sequence (P31749 whole entry) above
T1 sequence (P31749 whole entry): as above
T3 sequence (P31749 whole entry): as above

SMILES: N=c1ccn2c(n1)OC1C(OP(=O)(O)O)C(CO)OC12 (stereo not shown) [PH-687, 2-(hydroxymethyl)-6-imino-2,3,3a,9a-tetrahydro-6H-furo[2′,3′:4,5]oxazolo[3,2-a]pyrimidin-3-yl dihydrogen phosphate]
- interaction of Akt with PDK1 [1]: dose dependent decreased interaction
- activity against human lung cancer cells (cytotoxicity) [2]: most potent activity
- EGF, IGF, and insulin-induced Akt phosphorylation at S473 [3]: inhibited
- EGF, IGF, and insulin-induced Akt phosphorylation at T308 [3]: inhibited
- Tm (melting temperature) [4]: Dose-dependent increases in Tm
- inhibitory effect on cell growth (colony formation) [5]: reduced the inhibitory effect
- interaction of Akt with mTORC2 [6]: dose dependent decreased interaction
- PH/KD interaction [7]: increased PH/KD interaction in a dose-dependent manner
- dissociation of Mcl-1/Akt complexes [8]: dose-dependent dissociation of Mcl-1/Akt complexes
- Tm (melting temperature) [9]: no significant increase in Tm
- cell growth (colony formation) [10]: growth inhibition in a dose-dependent manner
- Tm (melting temperature) [11]: Dose-dependent increases in Tm
- Ki67 level in tumor tissues (IHC) [12, 17]: decreased levels
- apoptosis (active caspase-3) in tumor tissues (IHC) [12, 17]: increased apoptosis
- pAkt (S473) level in tumor tissues (IHC) [12, 17]: decreased levels
- pAkt (T308) level in tumor tissues (IHC) [12, 17]: decreased levels
- tumor growth (tumor volume) ([12]; nude mice, 0, 30, 60, 90 mg/kg/day i.p., 4 weeks): suppressed tumor growth in a dose-dependent manner; also recorded: suppresses tumor growth
- increase in alanine aminotransferase [13]: no significant increase
- increase in aspartate aminotransferase [13]: no significant increase
- increase in blood urea nitrogen [13]: no significant increase
- reduction in PLT [13]: no significant
- reduction in RBC [13]: no significant
- reduction in WBC [13]: no significant
- reduction in hemoglobin [13]: no significant
- weight loss [13]: no significant weight loss
- cell growth [14]: growth inhibition
- Akt activity [15]: significantly reduced Akt activity
- inhibitory effect on cell growth (colony formation) [16]: reduced the inhibitory effect

Reference: patent US20210137953A1, “Inhibitors of Mcl-1 and Akt Binding, Pharmaceutical Compositions, and Uses in Treating Cancer” (Emory University, priority 2019, published 2021)
